Experimental data reported in ChEMBL document CHEMBL3046172, “Synthesis and Insecticidal Activity of New 2- and 6-Substituted 4-Acetoxyquinolines” (1997).

Assays:
Type in all cases: functional
Bombyx mori [1] = test: Insecticidal activity against Bombyx mori Syogetsu x Syunrei third-instar larvae assessed as insect mortality upon topical application at 1 ug measured 48 hr post compound treatment
Bombyx mori [2] = test: Insecticidal activity against Bombyx mori Syogetsu x Syunrei third-instar larvae assessed as insect mortality upon topical application at 3 ug measured 48 hr post compound treatment
Bombyx mori [3] = test: Insecticidal activity against Bombyx mori Syogetsu x Syunrei third-instar larvae assessed as insect mortality upon topical application at 10 ug measured 48 hr post compound treatment
Bombyx mori [4] = test: Insecticidal activity against Bombyx mori Syogetsu x Syunrei third-instar larvae assessed as insect mortality upon topical application at 0.3 ug measured 48 hr post compound treatment
Bombyx mori [5] = test: Insecticidal activity against Bombyx mori Gunpo x Shugyoku third-instar larvae assessed as insect mortality upon topical application at 10 ug measured 48 hr post compound treatment
Spodoptera litura [6] = test: Insecticidal activity against Spodoptera litura third-instar larvae reared on artificial diets of Insecta LF assessed as insect mortality at 500 ppm measured 2 days post compound treatment; details: 48 h
Spodoptera litura [7] = test: Insecticidal activity against Spodoptera litura third-instar larvae reared on artificial diets of Insecta LF assessed as insect mortality at 250 ppm measured 2 days post compound treatment; details: 48 h
Spodoptera litura [8] = test: Insecticidal activity against Spodoptera litura third-instar larvae reared on artificial diets of Insecta LF assessed as insect mortality at 125 ppm measured 2 days post compound treatment; details: 48 h
Plutella xylostella [9] = test: Insecticidal activity against Plutella xylostella (diamondback moth) third-instar larvae reared on cabbage plants leaves pre-treated with 1000 ppm compound assessed as insect mortality measured 2 days post compound treatment
Plutella xylostella [10] = test: Insecticidal activity against Plutella xylostella (diamondback moth) third-instar larvae reared on cabbage plants leaves pre-treated with 500 ppm compound assessed as insect mortality measured 2 days post compound treatment
Plutella xylostella [11] = test: Insecticidal activity against Plutella xylostella (diamondback moth) third-instar larvae reared on cabbage plants leaves pre-treated with 250 ppm compound assessed as insect mortality measured 2 days post compound treatment

SMILES | mortality (Bombyx mori [1]) [%] | mortality (Bombyx mori [2]) [%] | mortality (Bombyx mori [3]) [%] | mortality (Bombyx mori [4]) [%] | other results
CCCCCc1nc2ccccc2c(OC(C)=O)c1C | 0 | 40 | 100 | – | –
CCCCCCC/C=C/c1nc2ccccc2c(OC(C)=O)c1C | 76 | 100 | – | 70 | –
C=Cc1nc2ccccc2c(OC(C)=O)c1C | – | – | – | – | mortality (Bombyx mori [5]): 0%
CCCCCCC/C=C\c1nc2ccc(F)cc2c(OC(C)=O)c1C | 10 | 100 | 100 | 0 | –
CCCc1nc2ccccc2c(OC(C)=O)c1C | – | 0 | 0 | – | –
CCCCc1nc2ccccc2c(OC(C)=O)c1C | – | 35 | 95 | – | –
CCCCCCCCCc1nc2ccccc2c(OC(C)=O)c1C | 15 | 100 | 100 | – | –
CC(=O)Oc1c(C)c(C)nc2ccccc12 | 0 | 71 | 100 | – | –
CCCCCCCc1nc2ccccc2c(OC(C)=O)c1C | 10 | 100 | 100 | 0 | –
CCc1nc2ccccc2c(OC(C)=O)c1C | 95 | 100 | – | 0 | –
C/C=C/c1nc2ccccc2c(OC(C)=O)c1C | – | – | 0 | – | –
CC(=O)Oc1c(C)c(C)nc2ccc(F)cc12 | 95 | 100 | – | 0 | –
CCCCCCC/C=C/c1nc2ccc(F)cc2c(OC(C)=O)c1C | – | – | 0 | – | –
CCCCCCc1nc2ccccc2c(OC(C)=O)c1C | 10 | 100 | 100 | – | –
CCc1nc2ccc(F)cc2c(OC(C)=O)c1C | 100 | – | – | 70 | mortality at 500 ppm (Spodoptera litura [6]): 100%; mortality at 250 ppm (Spodoptera litura [7]): 90%; mortality at 125 ppm (Spodoptera litura [8]): 55%; mortality at 1000 ppm (Plutella xylostella [9]): 97.5%; mortality at 500 ppm (Plutella xylostella [10]): 70%; mortality at 250 ppm (Plutella xylostella [11]): 42.5%
CCCCCCCCCc1nc2ccc(F)cc2c(OC(C)=O)c1C | – | – | 10 | – | –
CCCCCCc1nc2ccc(F)cc2c(OC(C)=O)c1C | 0 | 60 | 75 | – | –
